Entries after “also recorded” stand apart in the source; their conditions may differ. Read-outs that look alike come from different tables or passages of the source.
Experiments:
[1] = test system: 6-hydroxydopamine (6-OHDA) rodent model of Parkinson's disease; assay: Drug induced contralateral rotations (anti-Parkinson effect, motor performance) in unilaterally 6-OHDA lesioned rats; format: in vivo, Sprague-Dawley rats; settings: 6-OHDA rats; for Motor Effect [% of L-DOPA effect]: at equipotent dose, contralateral rotations; for Equipotent Dose [% of L-DOPA dose]: dose causing the same effect on motor performance as L-DOPA; for effect on motor performance (in words): comparison between test items
[2] = test system: 6-hydroxydopamine (6-OHDA) rodent model of Parkinson's disease; assay: Dyskinesia: scoring of abnormal involuntary movements (limb, axial, orolingual) after repeated treatment in 6-OHDA lesioned rats; format: in vivo, Sprague-Dawley rats
Source text: The effects on motor performance and the development of dyskinesia following administration of deuterated L-DOPA derivatives with different deuterium enrichment at specific position of the side chain have been compared among each other and to L-DOPA in the 6-hydroxydopamine (6-OHDA) rodent model of Parkinson's disease.
Female Sprague-Dawley rats weighing approximately 225 g were housed on a 12-hour light/dark cycle and kept on standard laboratory diet and water ad libitum. The rats were lesioned by unilateral injection of the neurotoxin 6-OHDA. The lesion was validated by measuring the rotational activity after i.p. injection of 2.5 mg/kg D-amphetamine.
Dyskinesia was evaluated after repeated treatment by scoring the animals for abnormal involuntary movements. The rats were scored, by an observer blinded to the experimental design for limb, axial and orolingual involuntary movements.
The equipotent dose as percent of L-DOPA dose that caused the same effect on motor performance and dyskinesia observed following repeated administration of these doses is shown in Table 2.

striatal dopamine = settings: compared to L-DOPA, prior art, cited from earlier work
Parkinson models = settings: cited from earlier work
[3] = female, Sprague-Dawley, rat, in vivo
[4] = 6-OHDA rats, repeated administration, equipotent dose
[5] = repeated administration of equipotent doses, 6-OHDA rats

| Compound | Motor Effect [% of L-DOPA effect] [1] | Equipotent Dose [% of L-DOPA dose] [1] | Dyskinesia [% of dyskinesia caused by L-DOPA] [2, 3] | effect on motor performance (in words) [1] | dyskinesia at equipotent dose (in words) [2, 4] | Dyskinesia [% of dyskinesia caused by L-DOPA] [2, 5] | striatal dopamine levels / output (in words) (striatal dopamine; listed as α, β-D2-L-DOPA) | dyskinesia at equipotent dose (in words) ([2]; rat, in vivo) | striatal dopamine levels / output (in words) (striatal dopamine; listed as α, β,β-D3-L-DOPA) | striatal dopamine levels / output (in words) (striatal dopamine; listed as α,β,β-D3-L-DOPA) | equi-effective dose compared to L-DOPA (Parkinson models; Parkinson models, literature) | motor activity (in words) (Parkinson models; compared to L-DOPA, several Parkinson models) |
| --- | --- | --- | --- | --- | --- | --- | --- | --- | --- | --- | --- | --- |
| N[C@@H](Cc1ccc(O)c(O)c1)C(=O)O [Test Item A, L-2-amino-3-(3,4-dihydroxyphenyl) propionic acid] | 100% of L-DOPA effect | 100% of L-DOPA dose | 100% of dyskinesia caused by L-DOPA |  |  |  |  |  |  |  |  |  |
| [2H][C@@H](c1ccc(O)c(O)c1)[C@]([2H])(N)C(=O)O [Test Item B, S/S-2-amino-2,3-dideutero-3-(3,4-dihydroxyphenyl) propionic acid] | 100% of L-DOPA effect | 30% of L-DOPA dose |  | significantly greater compared to α, β, β-D3-L-DOPA [C] and L-DOPA [A] | not reduced in comparison to L-DOPA | 100% of dyskinesia caused by L-DOPA | increase and prolong the output of striatal dopamine significantly more than L-DOPA; also recorded: highest striatal dopamine concentrations |  |  |  |  |  |
| [2H]C([2H])(c1ccc(O)c(O)c1)[C@]([2H])(N)C(=O)O [Test Item C, L-2-amino-2,3,3-trideutero-3-(3,4-dihydroxyphenyl) propionic acid] | 100% of L-DOPA effect | 60% of L-DOPA dose | 50% of dyskinesia caused by L-DOPA |  |  |  |  | significantly less dyskinesia than L-DOPA | increase and prolong the output of striatal dopamine significantly more than L-DOPA | higher longer-lasting striatal dopamine levels than L-DOPA | about 60% | improved motor activity compared to L-DOPA |
| L-2-amino-2,3,3*-trideutero-3-(3,4-dihydroxyphenyl) propionic acid [Test Item D] | 100% of L-DOPA effect | 35% of L-DOPA dose |  | motor effect equivalent to the di-deuterated α, β-D2-L-DOPA [B] | reduction of dyskinesia as the triple-deuterated α, β, β-D3-L-DOPA [C] | 50% of dyskinesia caused by L-DOPA |  |  |  |  |  |  |
